The results in this text go back to PubChem BioAssay AID504313 (Emory University Molecular Libraries Screening Center, 2011).

Structures are written as SMILES. pIC50: −log10 of the molar value. Calls of active or inactive are those of the source. How the calls were made is not given here.

The target in this assay is X-box-binding protein 1 (Homo sapiens) (UniProt P17861). In words: inhibitors of XBP1 reporter signal, dose response, counter-screen, cell-based (AID 504313).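 Further: CHO cells carrying an XBP1 reporter stimulated with tunicamycin; potency is for inhibition of the tunicamycin-induced reporter signal.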 To be noted: XBP1 reporter cell assay, percent of control. (Counterscreens check selectivity or assay interference.)

As for `Nc1ccc(SC(F)(F)F)cc1C(=O)c1ccccc1`, the IC50 – broadly, the concentration that inhibits the measured activity by half – was “inactive”.
The same measure, in the same setting: to `CN1CCc2c(sc(NC(=O)c3cc4cc([N+](=O)[O-])ccc4s3)c2C(N)=O)C1` belongs > 10 µM (inactive).
On to `O=C(OCn1ncc(Br)c(Br)c1=O)c1c(F)cccc1F`, for which the pIC50 (in general, −log10 of the IC50, conventionally taken in molar units) was 5.51.
With `NC(=O)c1cc(-c2ccccc2)nc(N2CCCCCC2)n1`, the IC50 result is “inactive”.
On to `COc1cc(C)nc(N2CCCC(C(=O)Nc3cccc(Cl)c3C)C2)n1` (stereo not drawn), for which the IC50 is > 10 µM (inactive).
The same measure, in the same setting: to `COc1ccc(-c2cnc(OC(C)(C)C)nc2OC(C)(C)C)cc1OC` belongs “inactive”; to `Cc1cccc(N2CCN(C(=O)CS(=O)(=O)Cc3nc(-c4ccccc4F)oc3C)CC2C)c1` (stereo not drawn), > 10 µM (inactive); to `S=c1[nH]nc(C2CCCCC2)n1/N=C/C=C/c1ccccc1`, > 10 µM (inactive).
In the case of `CCC(C)c1ccc(O)c(NC(=O)c2cncc(Br)c2)c1` (stereo not drawn), the IC50 entry was “inactive”.
For `COC(=O)c1ccc2c(c1)C(C)(C)C(/C=C/c1ccc(OC)c(OC)c1OC)=[N+]2C`, the IC50 result is “inactive”.
In the case of `COc1ccc([C@H]2Oc3cc(O)cc(O)c3C(=O)C2[C@@H]2C(=O)c3c(O)cc(O)cc3O[C@@H]2c2ccc(OC)cc2)cc1` (stereo partly drawn), the IC50 was > 10 µM (inactive).
Same read-out and setting: to `COc1ccc(/C=C/C(=O)NC(=S)NNC(=O)c2cccnc2)cc1` belongs > 10 µM (inactive).
Still for that read-out and setting: to `Cc1cccc(N=Nc2c(N)n[nH]c2-c2ccc(Cl)cc2)c1` belongs > 10 µM (inactive); to `CCc1c(C)sc(NC(=O)CSc2nc3c(c(C(F)(F)F)n2)CCc2ccccc2-3)c1C#N`, > 10 µM (inactive); to `O=C(Nc1ccccc1Cl)c1ccccc1Oc1ccc(C(F)(F)F)cc1[N+](=O)[O-]`, “inactive”.
Take `CCCCCCOC(=O)Nc1ccc(S(=O)(=O)Nc2cccc([N+](=O)[O-])c2)cc1`: the IC50 was > 10 µM (inactive).
With `Cc1ccc(C(C(=O)NCc2ccco2)N(C(=O)CNC(=O)c2cccs2)c2c(C)cccc2C)cc1` (stereo not drawn), the IC50 was > 10 µM (inactive).
On the same count and under the same terms, the figure for `CCCc1cc(=O)[nH]c(Nc2ccc(N3CCCCC3)cc2)n1` is > 10 µM (inactive); for `Cc1ccc(NC(=O)NC(=O)CN2C(=O)NC3(CCCCCCC3)C2=O)c(C)c1` it is > 10 µM (inactive).
As to `CN(C)c1ccc(-c2nc3ccccn3c2/N=C/c2ccc(Br)cc2)cc1`, the IC50 is > 10 µM (inactive).
Consider `O=C(O)c1cccc(COc2ccccc2Cl)c1`, for which the pIC50 is 6.04.
Regarding `CCOC(=O)c1cc(-c2cccs2)nc2c1c(C)nn2-c1ccccn1`, the IC50 was > 10 µM (inactive).
Take `CCOC(=O)CCS(=O)(=O)c1nc(-c2ccccc2)cc(C(F)(F)F)n1`: the IC50 entry is “inactive”.
Regarding `Cc1ccc(-c2nc(-c3ccccn3)no2)cc1`, the IC50 entry was “inactive”.
Consider `O=C(Nc1ccc(-c2nc3ccccc3s2)cc1)C1=COCCO1`, for which the IC50 entry was “inactive”.
With `COc1ccc(C(=O)/C=C/C(=O)N(CC(=O)NC2CCCCC2)Cc2ccc(F)cc2)c(O)c1`, the pIC50 is 5.65.
For `O=C(CCCOc1ccc(Cl)cc1Cl)N/N=C\C1CCCCC1`, the IC50 entry was “inactive”.
Regarding `CCOC(=O)c1sc(N=Nc2c(O)[nH]c(=O)[nH]c2=O)c(C(=O)OCC)c1C`, the IC50 is > 10 µM (inactive).
Same read-out and setting: the entry for `CCCCN=c1scc(-c2ccc3c(c2)NC(=O)CO3)n1N=C1CCCC1` is “inactive”.
For the molecule `OCCCNc1cc(-c2ccnc(Nc3cccc(Cl)c3)n2)ccn1`, the pIC50 was greater than 6.80.
In the case of `CCOC(=O)c1nc(S(C)(=O)=O)ncc1Cl`, the IC50 result was “inactive”.
The same measure, in the same setting: to `CC1CCC(n2c(=S)[nH]c3ccccc3c2=O)CC1` (stereo not drawn) belongs > 10 µM (inactive); to `CCOC(=O)c1c(N)sc(C(O)(C(F)(F)F)C(F)(F)F)c1-c1ccc(Cl)cc1`, “inactive”; to `O=C1C(C2=NC(c3ccccn3)C3C(=O)N(c4ccc(OC(F)(F)F)cc4)C(=O)C23)=C(O)c2ccccc21` (stereo not drawn), “inactive”.
Still for that read-out and setting: the entry for `O=C1C(C2=NC(c3ccccn3)C3C(=O)N(c4ccc(Cl)cc4Cl)C(=O)C23)=C(O)c2ccccc21` (stereo not drawn) is “inactive”; for `C=C(C)COc1ccc(-c2n[nH]c(C)c2-c2ccc(Br)cc2)c(O)c1` it is “inactive”; for `Cc1ccc(Cl)cc1NC1=C/C(=N\S(=O)(=O)c2cccs2)c2ccccc2C1=O` it is “inactive”.
With `CCOc1cc(/C=N\NC(=O)Cc2ccccc2)ccc1OCC(=O)Nc1ccc(C)c(C)c1`, the IC50 result is “inactive”.
`Cc1ccc(-c2nc(C(Cl)Cl)c3ccccc3n2)cc1`: the negative-log IC50 (pIC50) was 5.28.
Regarding `COc1ccc(/C=N\NC(=O)COc2ccc(C(C)(C)C)cc2)cc1Cn1nc(C)cc1C`, the IC50 result was “inactive”.
The same measure, in the same setting: the entry for `CC1(c2ccccc2)CC(C)(C)N2C(=O)/C(=C3\SC(=S)NC3=O)c3cccc1c32` (stereo not drawn) is “inactive”.
As for `COc1cc(NC(=O)COc2ccccc2[N+](=O)[O-])ccc1NC(=O)c1cccs1`, the IC50 was > 10 µM (inactive).
Regarding `CCOC(=O)c1c(/N=C/c2c(O)n(-c3cccc(C)c3)c(=O)[nH]c2=O)sc2c1CCCC2`, the pIC50 was 6.28.
As for `O=C(Cc1ccccc1)NC(=S)Nc1cccc(C(F)(F)F)c1`, the IC50 entry is “inactive”.
As to `O=C(Nc1ccc(-c2nc3ccccc3o2)cc1)c1ccc(N2CCOCC2)c([N+](=O)[O-])c1`, the IC50 was > 10 µM (inactive).
On to `CC1CCN(S(=O)(=O)c2ccc3c(c2)C(=NO)c2cc(S(=O)(=O)N4CCC(C)CC4)ccc2-3)CC1`, for which the pIC50 was 5.90.
Consider `CS(=O)(=O)c1nc(-c2ccco2)cc(C(F)(F)F)n1`, for which the IC50 entry is “inactive”.
Regarding `Cc1ccccc1CS(=O)(=O)c1nnc([C@H](CC(C)C)NC(=O)OC(C)(C)C)o1`, the IC50 entry is “inactive”.
Turning to `Cc1cc(-c2n[nH]c(=S)n2/N=C/C(Br)=C/c2ccccc2)n[nH]1`, the IC50 entry is “inactive”.
The same measure, in the same setting: the figure for `Cc1nn(Cc2c(Cl)cccc2Cl)c(C)c1NC(=O)c1cc(C(C)C)on1` is > 10 µM (inactive); for `CCc1ccc(OCC(=O)NC(NC(=S)Nc2ccccc2)C(Cl)(Cl)Cl)cc1` (stereo not drawn) it is > 10 µM (inactive); for `CCOC(=O)Cc1cc(-c2ccc(O)cc2)nc2ccc3ccccc3c12` it is > 10 µM (inactive).
With `CCCc1cc(-c2nc(N)ncc2-c2ccc3c(c2)OCCCO3)c(O)cc1OC`, the pIC50 is 5.30.
`COc1ccccc1NCC(O)COc1ccc(C(C)(C)C)cc1` (stereo not drawn): the IC50 entry was “inactive”.
For the molecule `COc1ccc(CC2(CO)CCN(CC3=Cc4cc(Cl)ccc4OC3)CC2)cc1`, the pIC50 was 5.57.
Regarding `Cc1ccc(C(C)C)c(OCC(=O)N/N=C/C2CCCCC2)c1`, the IC50 result was “inactive”.
Still for that read-out and setting: to `CC(C)(C)C(=O)Cn1ncc(Br)c(Br)c1=O` belongs > 10 µM (inactive); to `O=C(Nc1ccc(C(O)(C(F)(F)F)C(F)(F)F)cc1)c1ccc(Cl)c([N+](=O)[O-])c1`, “inactive”.
On to `CCc1ccc(-c2nc(CSCC(=O)NCc3ccco3)c(C)o2)cc1`, for which the negative-log IC50 (pIC50) is greater than 6.80.
For the molecule `CC(C)(C)C(=O)c1no[n+]([O-])c1/C(=N/O)C(C)(C)C`, the IC50 was > 10 µM (inactive).
`CC[n+]1c(/C=C2\Sc3ccccc3N2C)ccc2cccc(C)c21`: the negative logarithm of the IC50 (pIC50) is 6.62.
The same measure, in the same setting: to `CN1C2CCC1/C(=C/c1ccccn1)C(=O)/C2=C\c1ccccn1` belongs 6.27.
As to `O=C(CNC1CCCCCC1)Nc1ccccc1N1CCCCC1`, the IC50 entry is “inactive”.
